Results published in the supplement of paper PMC10307832.

Experiments:
Assay in all cases: relative viability (nuclei count vs DMSO), 5 days (fraction); higher = more cells survive
PAC-1 + Olaparib = compound: C=CCc1cccc(/C=N/NC(=O)CN2CCN(Cc3ccccc3)CC2)c1O [PAC-1] + O=C(c1cc(Cc2n[nH]c(=O)c3ccccc23)ccc1F)N1CCN(C(=O)C2CC2)CC1 [Olaparib] (partner 8 µM)
Outline: (§1)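 Lung cancer cell lines in 1536-well plates were dosed by pin tool the day after seeding, either with one drug alone or with a fixed anchor-drug dose plus five library-drug doses (not always all listed) in √10 steps. After 5 days, cells were fixed and their nuclei stained in one step (final 0.05% Triton X-100, 1% formaldehyde, 1 ug/ml Hoechst), then counted on 4× images. Relative viability is the nuclei count in treated wells divided by that in vehicle wells. Values are medians of duplicate plates.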

PAC-1 + Foretinib = compound: C=CCc1cccc(/C=N/NC(=O)CN2CCN(Cc3ccccc3)CC2)c1O [PAC-1] + COc1cc2c(Oc3ccc(NC(=O)C4(C(=O)Nc5ccc(F)cc5)CC4)cc3F)ccnc2cc1OCCCN1CCOCC1 [Foretinib] (partner 0.25 µM)
Outline: as §1

PAC-1 + Phenformin = compound: C=CCc1cccc(/C=N/NC(=O)CN2CCN(Cc3ccccc3)CC2)c1O [PAC-1] + N=C(N)NC(=N)NCCc1ccccc1 [Phenformin] (partner 250 µM)
Outline: as §1

Ibrutinib + Olaparib = compound: C=CC(=O)N1CCC[C@@H](n2nc(-c3ccc(Oc4ccccc4)cc3)c3c(N)ncnc32)C1 [Ibrutinib] + O=C(c1cc(Cc2n[nH]c(=O)c3ccccc23)ccc1F)N1CCN(C(=O)C2CC2)CC1 [Olaparib] (partner 8 µM)
Outline: as §1

For SK-MES-1, the relative viability (PAC-1 + Olaparib; first compound 0.02 µM) was 0.717, the relative viability (PAC-1 + Olaparib; first compound 0.06325 µM) was 0.711 and the relative viability (PAC-1 + Olaparib; first compound 0.2 µM) was 0.635. For the same cell line, the relative viability (PAC-1 + Olaparib; first compound 2 µM) was 0.437, the relative viability (PAC-1 + Foretinib; first compound 0.02 µM) was 0.816 and the relative viability (PAC-1 + Foretinib; first compound 0.06325 µM) was 1.03. It also gave a relative viability (PAC-1 + Foretinib; first compound 0.2 µM) of 0.851, a relative viability (PAC-1 + Foretinib; first compound 2 µM) of 0.943 and a relative viability (PAC-1 + Phenformin; first compound 0.02 µM) of 0.638. For the same cell line, the relative viability (PAC-1 + Phenformin; first compound 0.06325 µM) was 0.661, the relative viability (PAC-1 + Phenformin; first compound 0.2 µM) was 0.381 and the relative viability (PAC-1 + Phenformin; first compound 2 µM) was 0.645. It also gave a relative viability (Ibrutinib + Olaparib; first compound 0.005 µM) of 0.748, a relative viability (Ibrutinib + Olaparib; first compound 0.01581 µM) of 0.639 and a relative viability (Ibrutinib + Olaparib; first compound 0.05 µM) of 0.652. It also gave a relative viability (Ibrutinib + Olaparib; first compound 0.1581 µM) of 0.879 and a relative viability (Ibrutinib + Olaparib; first compound 0.5 µM) of 0.461.
